Measured values: US20240368191A1, “HETEROCYCLIC COMPOUNDS AND USES THEREOF” (Kumquat Biosciences Inc., priority 2021, published 2024)

Tests used:
[1] = target: T1, KRAS G12D 1-169 (His-tagged, GDP-loaded) (Homo sapiens, UniProt P01116, G12D); experiment: Covalent modification of KRAS protein by intact-protein LC-MS; assay type: binding; conditions: comparable or same conditions as K-Ras G12S
T1 construct: His -tagged GDP-loaded G12D 1-169; made in house; host or cells: E. coli, e.g. BL21 (DE3)
Procedure, shortened: (§1)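 Percent modification is derived from deconvoluted intact-protein LC-ESI-MS peak intensities of adducted versus unmodified KRAS. GDP-loaded His-tagged KRAS 1-169 (~2 μM, HEPES buffer at physiological conditions) was exposed to compound for 24 hrs at room temperature, then quenched with formic acid before C4 reversed-phase separation.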

[2] = target: T2, KRAS G12S 1-169 (His-tagged, GDP-loaded) (Homo sapiens, UniProt P01116, G12S); experiment: as above; assay type: binding; conditions: KRAS G12S, 24 hr
T2 construct: His -tagged GDP-loaded G12S 1-169; made in house; host or cells: E. coli, e.g. BL21 (DE3)
Procedure, shortened: as §1

K-Ras G12S = target: T3, K-Ras G12S (Homo sapiens, UniProt P01116, G12S); experiment: HTRF assay, K-Ras G12S / SOS1 interaction; assay type: biochemical; conditions: IC50 against K-Ras G12D divided by IC50 against K-Ras G12S
T3 construct: made in house; host or cells: E. coli, e.g. BL21 (DE3)
Excerpt: This assay can be also used to assess a selective inhibition or reduction of signaling output of a mutant Ras protein relative to a wildtype, or relative to a different mutant Ras protein. For example, the equilibrium interaction of wildtype Kras or K-Ras mutant (e.g., wildtype or a mutant thereof including those mentioned in Example 6) with SOS1 (e.g., hSOS1) can be assessed as a proxy or an indication for a subject compound's ability to bind and inhibit Ras protein. HTRF assay detects from (i) a fluorescence resonance energy transfer (FRET) donor (e.g., antiGST-Europium) that is bound to GST-tagged K-Ras mutant to (ii) a FRET acceptor (e.g., anti-6His -XL665) bound to a His -tagged hSOS1.
The assay buffer can contain ˜5 mM HEPES pH 7.4, ˜150 mM NaCl, ˜1 mM DTT, 0.05% BSA and 0.0025% (v/v) Igepal. A Ras working solution is prepared in an assay buffer containing typically a suitable amount of the protein construct (e.g., GST-tagged K-Ras mutant) and the FRET donor (e.g., antiGST-Eu(K) from Cisbio, France). A SOS1 working solution is prepared in an assay buffer containing suitable amount of the protein construct (e.g., His -hSOS1) and the FRET acceptor (e.g., anti-6His -XL665 from Cisbio, France). A suitable amount of the protein construct will depend on the range of activity or range of IC50 values being detected or under investigation. For detecting IC50 within a range of 500 nM, the protein constructs of the same range of molarity can be utilized.
A fixed volume of DMSO with or without test compound is transferred into a 384-well plate. Ras working solution is added to all wells of the test plate. SOS1 working solution is added to all wells except for those that are subsequently filled the inhibitor control solution. Upon incubation for about 10 minutes or longer, the fluorescence is measured with a M1000Pro plate reader (Tecan) using HTRF detection (excitation 337 nm, emission 1: 620 nm, emission 2: 665 nm). Compounds are tested in duplicates at different concentrations (for example, 10 μM, 2.5 μM, 0.63 μM, 0.16 μM, 0.04 μM, 0.01 μM test compound). The ratiometric data (i.e., emission 2 divided by emission 1) is used to calculate IC50 values against Ras using GraphPad Prism (GraphPad software). Following this general procedure, samples were tested with or without a subject compound disclosed herein including compounds exemplified in Table 3 to assess their abilities to inhibit K-Ras G12S relative to another mutant (e.g., K-Ras G12D). Signaling output measured in terms of IC50 values can be obtained, a ratio of IC50 against one mutant relative to another mutant can be calculated. For instance, a selective reduction of K-Ras G12S signaling output can be evidenced by a ratio greater than one. In particular, a selective reduction of K-Ras G12S signaling relative to K-Ras G12D signaling is evidenced as the ratio of IC50 (against K-Ras G12D) to IC50 (against K-Ras G12S) is greater than 1.

Molecule | covalent labeling of K-Ras G12D [1] | % G12S Modification at 24 hr. [2] | Ratio of IC50 KRAS G12D vs. IC50 KRAS G12S (K-Ras G12S)
2-amino-4-(6-chloro-4-(8-(5- chloro-1H-1,2,4-triazole-1- carbonyl)-3,8-diazabicyclo- [3.2.1]octan-3-yl)-8-fluoro-2- (((2R,7aS)-2-fluorotetrahydro- 1H-pyrrolizin-7a(5H)-yl)meth- oxy)quinazolin-7-yl)-7-fluoro- benzo[b]thiophene-3-carbonitrile [Compound A194] | essentially no detectable labeling | ++ (++ indicates between about 1%-20% labelling) | A (A: indicates that the ratio of IC50 against KrasG12D vs. IC50 against KrasG12S is 1-fold or greater)
N#Cc1cn(C(=O)N2CCC(Nc3nc(OC[C@@]45CCCN4C[C@H](F)C5)nc4c(F)c(-c5ccc(F)c6sc(N)nc56)c(Cl)cc34)CC2)cn1 [Compound A160, 1-(4-((7-(2-amino-7-fluorobenzo-[d]thiazol-4-yl)-6-chloro-8-fluoro-2-(((2R,7aS)-2-fluoro-tetrahydro-1H-pyrrolizin-7a(5H)-yl)methoxy)quinazolin-4-yl)amino)piperidine-1-car-bonyl)-1H-imidazole-4-carbo-nitrile] | – | – | A (A: indicates that the ratio of IC50 against KrasG12D vs. IC50 against KrasG12S is 1-fold or greater)
N#Cc1nccn1C(=O)N1C2CCC1CN(c1nc(OC[C@@]34CCCN3C[C@H](F)C4)nc3c(F)c(-c4ccc(F)c5sc(N)nc45)c(Cl)cc13)C2 [Compound A170, 1-(3-(7-(2-amino-7-fluorobenzo-[d]thiazol-4-yl)-6-chloro-8-fluoro-2-(((2R,7aS)-2-fluoro-tetrahydro-1H-pyrrolizin-7a(5H)-yl)methoxy)quinazolin-4-yl)-3,8-diazabicyclo[3.2.1]-octane-8-carbonyl)-1H-imid-azole-2-carbonitrile] | – | ++ (++ indicates between about 1%-20% labelling) | –
Nc1nc2c(-c3c(Cl)cc4c(N[C@H]5C[C@H]6CC[C@@H](C5)N6C(=O)n5cncn5)nc(OC[C@@]56CCCN5C[C@H](F)C6)nc4c3F)ccc(F)c2s1 [Compound A207, ((1R,3r,5S)-3-((7-(2-amino-7-fluorobenzo[d]thiazol-4-yl)-6-chloro-8-fluoro-2-(((2R,7aS)-2-fluorotetrahydro-1H-pyrrolizin-7a(5H)-yl)methoxy)quinazolin-4-yl)amino)-8-azabicyclo[3.2.1]-octan-8-yl)(1H-1,2,4-triazol-1-yl)methanone] | – | +++ (+++ indicates greater than 20% labelling) | A (A: indicates that the ratio of IC50 against KrasG12D vs. IC50 against KrasG12S is 1-fold or greater)
Cc1nc(C(C)C)nn1C(=O)N1CC2(C1)CN(c1nc(OC[C@@]34CCCN3C[C@H](F)C4)nc3c(F)c(-c4ccc(F)c5sc(N)c(C#N)c45)c(Cl)cc13)CCO2 [Compound A208, 2-amino-4-(6-chloro-8-fluoro-2-(((2R,7aS)-2-fluorotetrahydro-1H-pyrrolizin-7a(5H)-yl)meth-oxy)-4-(2-(3-isopropyl-5-meth-yl-1H-1,2,4-triazole-1-carbon-yl)-5-oxa-2,8-diazaspiro[3.5]-nonan-8-yl)quinazolin-7-yl)-7-fluorobenzo[b]thiophene-3-carbonitrile] | – | – | A (A: indicates that the ratio of IC50 against KrasG12D vs. IC50 against KrasG12S is 1-fold or greater)
C#Cc1c(F)ccc2cc(O)cc(-c3ncc4c(N5CC6CCC(C5)N6C(=O)n5cnc(C#N)c5)nc(OC[C@@]56CCCN5C[C@H](F)C6)nc4c3F)c12 [Compound A255, 1-(3-(7-(8-ethynyl-7-fluoro-3-hydroxynaphthalen-1-yl)-8-fluoro-2-(((2R,7aS)-2-fluoro-tetrahydro-1H-pyrrolizin-7a(5H)-yl)methoxy)pyrido[4,3-d]pyrimidin-4-yl)-3,8-diaza-bicyclo[3.2.1]octane-8-carbon-yl)-1H-imidazole-4-carbonitrile] | essentially no detectable labeling | ++ (++ indicates between about 1%-20% labelling) | –
N#Cc1c(N)sc2c(F)ccc(-c3c(Cl)cc4c(N[C@H]5C[C@H]6CC[C@@H](C5)N6C(=O)n5cncn5)nc(OC[C@@]56CCCN5C[C@H](F)C6)nc4c3F)c12 [Compound A257, 4-(4-(((1R,3r,5S)-8-(1H-1,2,4-triazole-1-carbonyl)-8-aza-bicyclo-[3.2.1]octan-3-yl)-amino)-6-chloro-8-fluoro-2-(((2R,7aS)-2-fluorotetrahydro-1H-pyrrolizin-7a(5H)-yl)meth-oxy)quinazolin-7-yl)-2-amino-7-fluorobenzo[b]thiophene-3-carbonitrile] | essentially no detectable labeling | ++ (++ indicates between about 1%-20% labelling) | –
N#Cc1c(N)sc2c(F)ccc(-c3c(Cl)cc4c(N5CCN(C(=O)n6cncn6)CC(F)(F)C5)nc(OC[C@@]56CCCN5C[C@H](F)C6)nc4c3F)c12 [Compound A280, 2-amino-4-(6-chloro-4-(6,6-difluoro-4-(1H-1,2,4-triazole-1-carbonyl)-1,4-diazepan-1-yl)-8-fluoro-2-(((2R,7aS)-2-fluoro-tetrahydro-1H-pyrrolizin-7a(5H)-yl)methoxy)quinazolin-7-yl)-7-fluorobenzo[b]thio-phene-3-carbonitrile] | essentially no detectable labeling | +++ (+++ indicates greater than 20% labelling) | –
(4-((7-(2-amino-7-fluorobenzo- [d]thiazol-4-yl)-6-chloro-8- fluoro-2-(((2R,7aS)-2-fluoro- tetrahydro-1H-pyrrolizin- 7a(5H)-yl)methoxy)quinazolin- 4-yl)amino)piperidin-1-yl)(2- chloro-1H-imidazol-1-yl)meth- anone [Compound A159] | – | – | A (A: indicates that the ratio of IC50 against KrasG12D vs. IC50 against KrasG12S is 1-fold or greater)
